Tests used:
[1] = tested on: MCF7 CARM1 KO cells; experiment: Quantitative MS of ADMA-containing peptides in MCF7 CARM1 KO cells expressing CARM1 28-608 or CARM1 140-608, and in CARM1 KO; assay type: cell-based, human
[2] = tested on: MCF7 cells; experiment: Quantitative nanoLC-MS/MS (TMT) of ADMA-containing peptides, CARM1 KO vs parental; assay type: cell-based, human; set-up: Fold change KO/WT: scale not given here
[3] = log2 scale ratio, mean of n = 3
[4] = ADMA-containing peptide, MCF7, CARM1 knockout (KO1-3) vs wild type (WT1-3), TMT 6-plex experiment #1
[5] = CARM1 140-608 versus WT, difference of mean log2 values
[6] = CARM1 KO versus WT, difference of mean log2 values
[7] = CARM1 KO vs wild type MCF7 cells, 3 biological replicates each
[8] = CARM1 140-608 vs WT, mean of 3 replicates (log2 scale)
[9] = KO vs WT, mean of 3 replicates (log2 scale)
[10] = MCF7, CARM1 KO (KO1-KO3) vs wild type (WT1-WT3)
[11] = ratio on log2 scale, mean of 3 replicates
[12] = MCF7, CARM1 KO vs WT, three biological replicates each
[13] = mean, CARM1 140-608 versus WT (log2 scale)
[14] = mean, CARM1 KO versus WT (log2 scale)
[15] = MCF7 CARM1 knockout vs wild type, 3 biological replicates each, values are on log2 scale
[16] = CARM1 140-608 versus WT, mean of three replicates (log2)
[17] = KO versus WT, mean of three replicates (log2)
[18] = difference of log2 means, CARM1 140-608 vs WT
[19] = difference of log2 means, KO vs WT
[20] = CARM1 140-608 vs WT, mean of 3 replicates, log2
[21] = KO vs WT, mean of 3 replicates, log2
[22] = MCF7, CARM1 knockout vs wild type, n = 3 each
[23] = ADMA-containing peptide, CARM1 knockout (KO) vs wild type (WT) MCF7 cells, 6-plex TMT experiment #1, three biological replicates each, sheet "MCF7"

Substance: GAAGAVTQSLSrTPTATTSGIrATLTPTVLAPrLPQPPQNPTNIQNFQLPPGMVLVR
- CARM1 140-608/WT [1, 3]: -3.099
- KO/WT [1, 3]: -4.565
- Fold change KO/WT [2, 4]: -4.565

Substance: QrGVSHAMGGrGGINR
- CARM1 140-608/WT [1, 3]: 0.2049
- KO/WT [1, 3]: 0.2554
- Fold change KO/WT [2, 4]: 0.102

Substance: SSYLESPrGPrFDGPR
- CARM1 140-608/WT [1, 5]: -2.628
- KO/WT [1, 6]: -4.092
- Fold change KO/WT [2, 7]: -3.147

Substance: MGTPVPrPPQDMGQIGVrTPLGPRVAAPVGPVGPTPTVLPMGAPVPrPR
- CARM1 140-608/WT [1, 8]: -2.791
- KO/WT [1, 9]: -3.834
- Fold change KO/WT [2, 10]: -3.625

Substance: SGIILrSPrPDFrPrEPFLSrDPFHSLK
- CARM1 140-608/WT [1, 8]: -0.96
- KO/WT [1, 9]: -2.553
- Fold change KO/WT [2, 10]: -2.553

Substance: TGALPGPGPLSNPrLGGLPGPGPMSNPR
- CARM1 140-608/WT [1, 11]: -0.9797
- KO/WT [1, 11]: -1.901
- Fold change KO/WT [2, 12]: -3.491

Substance: QAAPQMLQQQPPrLISVQTMQR
- CARM1 140-608/WT [1, 5]: -0.6208
- KO/WT [1, 6]: -1.292
- Fold change KO/WT [2, 7]: -1.292

Substance: LLGQRPGPYDRPIGGrGGYYGAGR
- CARM1 140-608/WT [1, 13]: 0.09661
- KO/WT [1, 14]: 0.2187
- Fold change KO/WT [2, 15]: -0.08078

Substance: RPPPEHFrRPPPEHFR
- CARM1 140-608/WT [1, 16]: -0.8789
- KO/WT [1, 17]: -0.5356
- Fold change KO/WT [2, 10]: -0.5356

Substance: ErDMQYVQR
- CARM1 140-608/WT [1, 5]: 0.06744
- KO/WT [1, 6]: 1.019
- Fold change KO/WT [2, 7]: 1.019

Substance: VrATSVLPrYGPPCLFK
- CARM1 140-608/WT [1, 3]: -1.769
- KO/WT [1, 3]: -2.652
- Fold change KO/WT [2, 4]: -2.652

Substance: MPTMPMLDIrPGLIPQAPGPrFPLIQPGIPPQR
- CARM1 140-608/WT [1, 8]: 0.8902
- KO/WT [1, 9]: -2.649
- Fold change KO/WT [2, 10]: -2.649

Substance: GSQDSPAVPHPGPLQHWQPENVNQAFTrPPPPYPGNIrSPVAPPLGPrYAVFPK
- CARM1 140-608/WT [1, 18]: -1.013
- KO/WT [1, 19]: -2.722
- Fold change KO/WT [2, 15]: -2.234

Substance: APVFPGrGSYSNr
- CARM1 140-608/WT [1, 13]: 0.2637
- KO/WT [1, 14]: 0.3482
- Fold change KO/WT [2, 15]: 0.2723

Substance: EVYQQQQYGSGGrGNR
- CARM1 140-608/WT [1, 13]: -0.0375
- KO/WT [1, 14]: 0.5359
- Fold change KO/WT [2, 15]: 0.5359

Substance: APPGGLHAPrLSLEGAArGAAEAK
- CARM1 140-608/WT [1, 20]: -2.013
- KO/WT [1, 21]: -2.606
- Fold change KO/WT [2, 12]: -2.606

Substance: ELAPrAHVLSK
- CARM1 140-608/WT [1, 13]: -1.733
- KO/WT [1, 14]: -2.404
- Fold change KO/WT [2, 22]: -2.404

Substance: KSTLKPQPAPQAGPIPVAPIGTLKPQPQPVPASYTTASTSSrPTFNVQVK
- CARM1 140-608/WT [1, 18]: -2.692
- KO/WT [1, 19]: -3.309
- Fold change KO/WT [2, 15]: -3.309

Substance: FPAGArYAGAGGLER
- CARM1 140-608/WT [1, 20]: -0.8137
- KO/WT [1, 21]: -1.235
- Fold change KO/WT [2, 12]: -0.6954

Substance: SYGLGSEQrSQAPArYSLQSANASSLSSGQLK
- CARM1 140-608/WT [1, 20]: -3.897
- KO/WT [1, 21]: -5.372
- Fold change KO/WT [2, 12]: -5.372

Substance: APrSLIPPIPVSPPILAPrLSSGALK
- CARM1 140-608/WT [1, 8]: -0.773
- KO/WT [1, 9]: -1.927
- Fold change KO/WT [2, 10]: -1.927

Substance: APVFPGrGSYSNR
- CARM1 140-608/WT [1, 13]: 0.1704
- KO/WT [1, 14]: 0.1127
- Fold change KO/WT [2, 15]: -0.1545

Substance: QMAVPSFTQQILCPKPVHVrPPMPPrYPAPYGER
- CARM1 140-608/WT [1, 16]: 0.05331
- KO/WT [1, 17]: -2.9202
- Fold change KO/WT [2, 23]: -2.943

Substance: SVVESSAPGANNLQVNALVArLPLLLPR
- CARM1 140-608/WT [1, 8]: -0.343
- KO/WT [1, 9]: -2.6091
- Fold change KO/WT [2, 10]: -2

Substance: VrPVLNLPGPGPALPR
- CARM1 140-608/WT [1, 16]: -1.7334
- KO/WT [1, 17]: -4.296
- Fold change KO/WT [2, 23]: -2.268

Substance: VSTSGPrAFSSrSYTSGPGSR
- CARM1 140-608/WT [1, 18]: -3.492
- KO/WT [1, 19]: -3.7435
- Fold change KO/WT [2, 15]: -3.7435

Substance: GTPGPPPAHGAALQPHPrVNFCPLPSEQCYQAPGGPEDR
- CARM1 140-608/WT [1, 5]: -1.327
- KO/WT [1, 6]: -0.7925
- Fold change KO/WT [2, 7]: -0.7925

Substance: NAALGPSEPrLALAPVGPrAAMSASSEGPrLALASPrPILAPLCTPEGQK
- CARM1 140-608/WT [1, 13]: -2.352
- KO/WT [1, 14]: -3.912
- Fold change KO/WT [2, 15]: -3.912

Substance: QLVGGSQAFYQrAPYPGSLPLQQQQQQLWQQQQATAATSMrFAMSARFPSTPGPELGR
- CARM1 140-608/WT [1, 18]: -1.475
- KO/WT [1, 19]: -2.512
- Fold change KO/WT [2, 15]: -2.512

Substance: VSTSGPrAFSSR
- CARM1 140-608/WT [1, 18]: -3.216
- KO/WT [1, 19]: -3.388
- Fold change KO/WT [2, 15]: -3.388

Substance: ASAPAADPPrYTFAPSVSLNK
- CARM1 140-608/WT [1, 16]: -4.581
- KO/WT [1, 17]: -6.091
- Fold change KO/WT [2, 23]: -4.884

Substance: TPASTWASPrPLLNWSR
- CARM1 140-608/WT [1, 8]: -2.026
- KO/WT [1, 9]: -3.334
- Fold change KO/WT [2, 10]: -3.334

Substance: LFIGGLSFETTDDSLr
- CARM1 140-608/WT [1, 13]: -0.1871
- KO/WT [1, 14]: 0.1666
- Fold change KO/WT [2, 22]: -0.1032

Reference: publication PMC5458078, “Global mapping of CARM1 substrates defines enzyme specificity and substrate recognition” (Nature Communications, 2017)
